The source of these data is patent EP1226131B1, “ISOXAZOLECARBOXAMIDE DERIVATIVES” (RECORDATI INDUSTRIA CHIMICA E FARMACEUTICA S.p.a., priority 1999, dated 2001).

Like-named read-outs stand apart in the source and are kept apart here. Some results are limits rather than exact numbers.

Data set [1] relates to urethral contractions (UP) induced by noradrenaline (NA). Nature of the data set: Urethral contractions induced by noradrenaline injection in anaesthetised dogs, i.v. administration. It counts as in vivo. Particulars: dog; for ED50: Canis lupus familiaris, iv, dose inhibiting by 50% urethral contractions induced by noradrenaline, read-out: UP ID50 NA; for R1 (DBP/NA): ratio DBP ED25 / UP ID50 NA. The method, then:
(§1) The experiments were performed according to the method of Imagawa J. et al., J Pharmacol. Methods 22, 103-111 (1989), with substantial modifications, as follows: adult male beagle dogs, weighing 8-10 kg, were anaesthetised with pentobarbital sodium (30 mg/kg i.v. and 2 mg/kg/h i.v.), intubated and spontaneously ventilated with room air. In order to monitor systemic blood pressure (BP), a polyethylene (PE) catheter was introduced into the aortic arch through the left femoral artery. A collateral of the left femoral vein was cannulated for infusion of anaesthetic, and the right femoral vein was cannulated for administration of the compounds. For intraarterial (i.a.) injection of noradrenaline (NA), a PE catheter was introduced into the lower portion of the abdominal aorta via the right external iliac artery. Through such procedure, NA was selectively distributed to the lower urinary tract. A paramedian vertical suprapubic incision extending from the base of the pelvis to the mid-abdominal region was made and the bladder and the prostate were exposed. The bladder was manually emptied with a syringe. […] The distal end of the right or left branch of the nerve was placed on a bipolar platinum electrode. Prostatic urethral pressure was monitored with a Mikro-tip cathe[…]) introduced into the bladder via the external urethral meatus, and withdrawn until the pressure transducer was positioned in the prostatic region of the urethra. A ligature was secured between the neck of the bladder and urethra to isolate the response of the latter and to avoid any interaction with the bladder. Another ligature was put around the Mikro-tip catheter at the external meatus, to secure the catheter itself. […] Both i.a. injections of NA and stimulations of the hypogastric nerve were repeated 5 minutes after every dosing of test compound with intervals of about 5 minutes between two stimulations. In order to compare the effects of the administered compound, dose/response curves were constructed by computing, at the peak effect, the percent decrease in diastolic blood pressure and the percent inhibition of the increase in urethral pressure induced by both types of stimulation used.

The target in data set [2] is T1, recombinant α1d-adrenoceptor (Homo sapiens, UniProt P25100).
T1 sequence (P25100 1-572): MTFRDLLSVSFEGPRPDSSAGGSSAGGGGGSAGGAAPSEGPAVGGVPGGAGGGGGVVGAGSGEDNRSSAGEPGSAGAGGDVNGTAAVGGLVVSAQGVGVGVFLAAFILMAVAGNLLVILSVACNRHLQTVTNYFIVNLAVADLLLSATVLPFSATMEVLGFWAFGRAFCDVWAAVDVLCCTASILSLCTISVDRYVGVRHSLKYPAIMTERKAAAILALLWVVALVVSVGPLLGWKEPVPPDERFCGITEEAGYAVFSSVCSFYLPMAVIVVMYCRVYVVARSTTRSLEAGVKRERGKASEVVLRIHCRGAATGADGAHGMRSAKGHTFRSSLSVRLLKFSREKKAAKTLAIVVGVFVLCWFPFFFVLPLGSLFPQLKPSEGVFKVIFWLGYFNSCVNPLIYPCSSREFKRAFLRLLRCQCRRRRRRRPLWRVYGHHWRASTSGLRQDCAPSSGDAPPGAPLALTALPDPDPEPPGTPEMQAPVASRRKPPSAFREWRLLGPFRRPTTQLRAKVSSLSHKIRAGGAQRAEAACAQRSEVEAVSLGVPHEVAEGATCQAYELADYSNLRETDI
Nature of the data set: Radioligand binding assay ([3H]prazosin) on cloned α1-adrenoceptor subtype, membranes of transfected cells.
Protocol: (§2) Determination of affinity for cloned subtypes of the cloned α1-adrenoceptor was performed in membranes from cells transfected by electroporation with DNA expressing the genes encoding each α1-adrenoceptor subtype.
(§3) Non-specific binding was determined in the presence of 10 µM phentolamine. Incubation was stopped by addition of ice-cold Tris buffer and rapid filtration through 0.2%-polyethyleneimine pretreated Schleicher & Schuell GF52 filters. […] The homogenates were centrifuged at 40000 × g × 20 minutes and the membranes were resuspended in a small volume of ice-cold buffer containing Tris 5 mM and EDTA 5 mM (pH 7.4) and immediately frozen and stored at -70°C until use.

The subject of data set [3] is diastolic blood pressure (DBP). Put plainly: Effect on diastolic blood pressure in anaesthetised dogs, i.v. administration. It counts as in vivo. The conditions noted are these: dog, dose inducing a 25% decrease in diastolic blood pressure, one value spanning c3 and c4. How it is done:
The experiments were performed according to the method of Imagawa J. et al., J Pharmacol. Methods 22, 103-111 (1989), with substantial modifications, as follows: adult male beagle dogs, weighing 8-10 kg, were anaesthetised with pentobarbital sodium (30 mg/kg i.v. and 2 mg/kg/h i.v.), intubated and spontaneously ventilated with room air. In order to monitor systemic blood pressure (BP), a polyethylene (PE) catheter was introduced into the aortic arch through the left femoral artery. A collateral of the left femoral vein was cannulated for infusion of anaesthetic, and the right femoral vein was cannulated for administration of the compounds. For intraarterial (i.a.) injection of noradrenaline (NA), a PE catheter was introduced into the lower portion of the abdominal aorta via the right external iliac artery. Through such procedure, NA was selectively distributed to the lower urinary tract. A paramedian vertical suprapubic incision extending from the base of the pelvis to the mid-abdominal region was made and the bladder and the prostate were exposed. The bladder was manually emptied with a syringe. […] The distal end of the right or left branch of the nerve was placed on a bipolar platinum electrode. Prostatic urethral pressure was monitored with a Mikro-tip catheter (5F) introduced into the bladder via the external urethral meatus, and withdrawn until the pressure transducer was positioned in the prostatic region of the urethra. A ligature was secured between the neck of the bladder and urethra to isolate the response of the latter and to avoid any interaction with the bladder. Another ligature was put around the Mikro-tip catheter at the external meatus, to secure the catheter itself. The hypogastric nerve stimulation was made with a train of rectangular pulses of 10-15 V, 10-30 Hz, width 5 msec, 8 sec duration.
After a stabilising period following the surgical procedure (30 minutes), in which arterial and prostatic urethral pressure were continuously monitored as basal values, i.a. administration of NA and stimulation of the hypogastric nerve were alternately made at intervals of 10 minutes.
The dose of NA and the parameter of hypogastric nerve stimulation chosen were such as to produce an increase of at least 100% in urethral pressure. The test compounds were administered i.v. in a cumulative manner with intervals of 15-20 min between administrations. Both i.a. injections of NA and stimulations of the hypogastric nerve were repeated 5 minutes after every dosing of test compound with intervals of about 5 minutes between two stimulations. […]

The target of the next data set is T2, α1a adrenergic receptor (Homo sapiens, UniProt P35348).
T2 sequence (P35348 1-466): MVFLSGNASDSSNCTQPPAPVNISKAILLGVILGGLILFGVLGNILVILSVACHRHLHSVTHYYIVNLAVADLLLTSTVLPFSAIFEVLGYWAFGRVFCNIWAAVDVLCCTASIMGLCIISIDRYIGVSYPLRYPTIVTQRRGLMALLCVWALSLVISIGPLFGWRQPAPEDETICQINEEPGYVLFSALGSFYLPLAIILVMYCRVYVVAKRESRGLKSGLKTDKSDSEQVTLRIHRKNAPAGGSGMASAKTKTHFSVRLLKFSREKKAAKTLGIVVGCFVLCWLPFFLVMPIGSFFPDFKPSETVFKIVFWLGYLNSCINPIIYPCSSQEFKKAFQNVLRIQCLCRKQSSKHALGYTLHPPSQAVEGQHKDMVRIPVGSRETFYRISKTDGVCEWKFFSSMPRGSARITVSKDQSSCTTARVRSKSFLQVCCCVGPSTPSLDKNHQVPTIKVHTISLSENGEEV
Nature of the data set: Radioligand binding assay ([3H]prazosin) on cloned α1-adrenoceptor subtype, membranes of transfected cells.

The subject of data set [4] is urethral contractions (UP) induced by hypogastric-nerve stimulation (HYP). Nature of the data set: Urethral contractions induced by hypogastric-nerve stimulation in anaesthetised dogs, i.v. administration. It is filed as in vivo. The conditions noted are these: Canis lupus familiaris, iv, dog, dose inhibiting by 50% urethral contractions induced by hypogastric-nerve stimulation, read-out: UP ID50 HYP. The method, then:
as §1, with “In order to compare the effects of the administered compound, dose/response curves were constructed by computing, at the peak effect, the percent decrease in diastolic blood pressure and the percent inhibition of the increase in urethral pressure induced by both types of stimulation used.” left out

Data set [5] has as its target T3, human 5-HT1A-serotoninergic receptor (Homo sapiens, UniProt P08908).
T3 construct: expressed in transfected cells; host or cells: HeLa
T3 sequence (P08908 1-422): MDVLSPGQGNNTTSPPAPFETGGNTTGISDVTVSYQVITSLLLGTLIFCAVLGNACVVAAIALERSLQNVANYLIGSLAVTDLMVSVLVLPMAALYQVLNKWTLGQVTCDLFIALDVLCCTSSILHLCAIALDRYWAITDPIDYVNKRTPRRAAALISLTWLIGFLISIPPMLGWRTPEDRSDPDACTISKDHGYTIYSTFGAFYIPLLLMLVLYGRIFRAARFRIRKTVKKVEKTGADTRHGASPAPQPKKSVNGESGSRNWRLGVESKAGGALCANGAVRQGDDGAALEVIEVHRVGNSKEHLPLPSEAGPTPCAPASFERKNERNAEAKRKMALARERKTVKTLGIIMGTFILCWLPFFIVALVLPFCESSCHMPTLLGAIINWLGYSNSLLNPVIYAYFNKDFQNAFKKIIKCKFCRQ
Put plainly: Radioligand binding assay ([3H]8-OH-DPAT) on membranes of transfected HeLa cells. The conditions noted are these: human receptor in HeLa cells, read-out: Affinity (Ki, nM) 5-HT1A. An excerpt: Data were expressed as mean of Ki.

Setting [6] is: read-out: Affinity (Ki, nM) α1d, recombinant receptor, [3H]prazosin.

Protocol for α1a adrenergic receptor: as §2, §3

By Ki is commonly meant the dissociation constant of the complex between target and ligand, obtained from inhibition or displacement. Turning to `COc1ccc(Cl)cc1N1CCN(CCCNC(=O)c2c(-c3ccccc3)noc2C)CC1` [Example 1, N-{3-[4-(5-Chloro-2-methoxyphenyl)-1-piperazinyl]-propyl}-5-methyl-3-phenylisoxazole-4-carboxamide], in data set [1], the ED50 is 3.4 µg/kg and the “R1 (DBP/NA)” value stood at 101.6. In data set [2] (setting [6]), the Ki was 2.72 nM. In addition, the “DBP ED25” value in data set [3] came to 345.4 µg/kg.

In the case of `Cc1onc(-c2c(F)cccc2Cl)c1C(=O)NCCCN1CCN(c2ccccc2OCC(F)(F)F)CC1` [Example 12, 3-(2-Chloro-6-fluorophenyl)-5-methyl-N-{3-[4-[2-(2,2,2-trifluoroethoxy)phenyl)-1-piperazinyl]-propyl}-isoxazole-4-carboxamide], the Ki was 2.19 nM in data set [2] and 0.16 nM at α1a adrenergic receptor.

`Cc1onc(-c2ccccc2)c1C(=O)NCCCN1CCN(c2ccc(F)cc2OCC(F)(F)F)CC1` [Example 6, N-{3-[4-[4-Fluoro-2-(2,2,2-trifluoroethoxy)-phenyl]-1-piperazinyl]-propyl}-5-methyl-3-phenylisoxazole-4-carboxamide]: in data set [1], the ED50 worked out at 2.4 µg/kg and the “R1 (DBP/NA)” value is 82. Further, in data set [2] (setting [6]), the Ki was found to be 18.9 nM. In data set [3], the “DBP ED25” value was 196.7 µg/kg. Also, in data set [4], the ED50 was determined as 4.5 µg/kg.

Take `O=C(NCCCN1CCN(c2ccc(F)cc2OCC(F)(F)F)CC1)c1conc1-c1ccc(F)cc1` [Example 8, 3-(4-Fluorophenyl)-N-{3-[4-[4-fluoro-2-(2,2,2-trifluoroethoxy)-phenyl]-1-piperazinyl]-propyl}-isoxazole-4-carboxamide]: the Ki in data set [2] worked out at 25.8 nM; at α1a adrenergic receptor it was 0.11 nM.

With `Cc1onc(-c2ccccc2)c1C(=O)NCCCN1CCN(c2cc(Cl)ccc2OS(=O)(=O)C(F)(F)F)CC1` [Example 7, N-{3-[4-[(5-Chloro-2-trifluoromethanesulphonyloxy)-phenyl]-1-piperazinyl]-propyl}-5-methyl-3-phenylisoxazole-4-carboxamide], the values for the Ki (in data set [2]; in data set [5]; at α1a adrenergic receptor) were 38.9 nM, 1000 nM and 0.918 nM, respectively.

For the compound `Cc1onc(-c2c(F)cccc2Cl)c1C(=O)NCCCN1CCN(c2ccc(F)cc2OCC(F)(F)F)CC1` [Example 9, 3-(2-Chloro-6-fluorophenyl)-N-{3-[4-[4-fluoro-2-(2,2,2-trifluoroethoxy)-phenyl]-1-piperazinyl]-propyl}-5-methylisoxazole-4-carboxamide], the Ki was found to be 6.15 nM in data set [2] and 0.4 nM on α1a adrenergic receptor.

On to `COc1ccc(OCC(F)(F)F)cc1N1CCN(CCCNC(=O)c2c(-c3ccccc3)noc2C)CC1` [Example 4, N-{3-[4-[2-Methoxy-5-(2,2,2-trifluoroethoxy)phenyl]-1-piperazinyl]-propyl}-5-methyl-3-phenylisoxazole-4-carboxamide], for which the Ki in data set [2] is 128 nM; in data set [5] it was more than 1000 nM; at α1a adrenergic receptor it was 17 nM.

As to `Cc1onc(-c2ccccc2)c1C(=O)NCCCN1CCN(c2cc(Cl)ccc2O)CC1` [Example 2, N-{3-[4-(5-Chloro-2-hydroxyphenyl)-1-piperazinyl]-propyl}-5-methyl-3-phenylisoxazole-4-carboxamide], the Ki in data set [2] worked out at 25.2 nM; at α1a adrenergic receptor it was 1.16 nM.

On to `Cc1onc(-c2ccccc2Cl)c1C(=O)NCCCN1CCN(c2ccc(F)cc2OCC(F)(F)F)CC1` [Example 11], for which the Ki in data set [2] came to 4.66 nM; on α1a adrenergic receptor it was 0.12 nM.

`Cc1onc(-c2c(Cl)cccc2Cl)c1C(=O)NCCCN1CCN(c2ccc(F)cc2OCC(F)(F)F)CC1` [Example 10, 3-(2,6-Dichlorophenyl)-N-{3-[4-[4-fluoro-2-(2,2,2-trifluoroethoxy)-phenyl]-1-piperazinyl]-propyl}-5-methylisoxazole-4-carboxamide.]: the Ki stood at 38.6 nM in data set [2] and 2.28 nM on α1a adrenergic receptor.
